Source: ChEMBL document CHEMBL3132807, “Chemical motifs that redox cycle and their associated toxicity” (Medchemcomm, 2013)

Columns and labels:
[1] = Cytotoxicity against human THLE cells assessed as ATP depletion after 72 hrs by CellTitre-Glo assay; type: functional, cell-based
[2] = Cytotoxicity against human THLE cells assessed as ATP depletion after 4 hrs by CellTitre-Glo assay; type: functional, cell-based
[3] = Induction of ROS generation assessed as generation of H2O2 measured as oxidation of phenol red after 60 mins by phenol red assay; type: physicochemical
THLE = assay: Cytotoxicity against human THLE cells assessed as ATP depletion by CellTitre-Glo assay; type: functional, cell-based; conditions: TDE = time-dependent effect
[4] = Cytotoxicity against human THLE cells assessed as ATP depletion after 24 hrs by CellTitre-Glo assay; type: functional, cell-based

| SMILES | EC50 [1] | EC50 [2] | EC50 at 60 min [3] | Activity (THLE) | EC50 [4] |
| --- | --- | --- | --- | --- | --- |
| C[n+]1cc2c3c(ccc2c2ccc4cc5c(cc4c21)OCO5)OCO3 [SANGUINARIUM] | 0.93 µM | 1 µM | 513 µM | tde | 0.89 µM |
| O=C1NC(=O)/C(=C\c2ccc(Cl)cc2)C2=C1CCCC2 | – | – | 0.5 µM | – | – |
| Cn1nc(-c2cccs2)nc2c(=O)n(C)c(=O)nc1-2 | 3.1 µM | 2.4 µM | 2 µM | tde | 2.9 µM |
| Cn1nc(/C=C/c2ccccc2)nc2c(=O)n(C)c(=O)nc1-2 | 1.7 µM | 1.3 µM | 1 µM | tde | 1.2 µM |
| O=C1NC(=O)/C(=C\c2ccc(C3CCCCC3)cc2)C2=C1CCCC2 | – | – | 121 µM | – | – |
| O=C1NC(=O)/C(=C\c2ccccc2)C2=C1CCC2 | > 300 µM | > 300 µM | 233 µM | tde | > 300 µM |
| Cn1nc(-c2ccccc2)cc2c(=O)n(C)c(=O)nc1-2 | > 300 µM | > 300 µM | > 1000 µM | tde | > 300 µM |
| Cc1cc(C)n(C)c2cccc(=O)c1-2 | > 300 µM | > 300 µM | 33 µM | tde | > 300 µM |
| NC(=O)N1C(=O)/C(=C(\O)c2ccc(Cl)s2)c2cc(Cl)ccc21 | 117 µM | > 300 µM | 667 µM | tde | 253 µM |
| COc1ccc(-c2nc3c(=O)n(C)c(=O)nc-3n(C)n2)cc1 | 7.2 µM | 9.6 µM | 2 µM | tde | 6 µM |
| CCCCCc1ccc(/C=C2\C(=O)NC(=O)C3=C2CCCC3)cc1 | – | – | 9.2 µM | – | – |
| NC(=O)N1C(=O)/C(=C(\O)c2ccc(F)s2)c2cc(F)c(Cl)cc21 | 108 µM | > 300 µM | 833 µM | tde | 175 µM |
| Cc1cc2nc3c(=O)[nH]c(=O)nc-3n(C[C@H](O)[C@H](O)[C@H](O)CO)c2cc1C [RIBOFLAVIN] | > 300 µM | > 300 µM | 129 µM | tde | > 300 µM |
| O=C1NC(=O)/C(=C\c2ccc(Cl)cc2Cl)C2=C1CCCC2 | – | – | 236 µM | – | – |
| O=C1NC(=O)/C(=C\c2ccc(O)cc2)C2=C1CCCC2 | – | – | 8.6 µM | – | – |
| Cn1nc(-c2ccc([N+](=O)[O-])cc2)nc2c(=O)n(C)c(=O)nc1-2 | 3.2 µM | 5.2 µM | 1 µM | tde | 2.9 µM |
| Cn1nc(/C=C\c2ccccc2)nc2c(=O)n(C)c(=O)nc1-2 | 6.8 µM | 4.8 µM | 1 µM | tde | 5.9 µM |
| O=C1C=C(Cl)C(=O)c2ccccc21 | 37.4 µM | 21.1 µM | 2.5 µM | tde | 13.8 µM |
| C[n+]1ccc(-c2cc[n+](C)cc2)cc1 [PARAQUAT] | > 300 µM | > 300 µM | > 1000 µM | tde | > 300 µM |
| O=c1[nH]c(=O)c2nccnc2[nH]1 | > 300 µM | > 300 µM | 713 µM | tde | > 300 µM |
| Cn1ncnc2c(=O)n(C)c(=O)nc1-2 | 3.2 µM | 2.7 µM | 1 µM | tde | 2.1 µM |
| COc1cc(/C=C2\C(=O)NC(=O)C3=C2CCCC3)cc(OC)c1OC | – | – | 0.5 µM | – | – |

| SMILES | EC50 [1] | EC50 [2] | EC50 at 60 min [3] | Activity (THLE) | EC50 [4] |
| --- | --- | --- | --- | --- | --- |
| O=C1NC(=O)/C(=C\c2ccccc2)C2=C1CCCC2 [TESIMIDE] | > 300 µM | > 300 µM | 26 µM | tde | > 300 µM |
| Cn1c(=O)nc2sc3ccccc3nc-2c1=O | 8.2 µM | 10.6 µM | 151 µM | tde | 9.9 µM |
| Cn1nc(-c2ccccc2)nc2c(=O)n(C)c(=O)nc1-2 | 7.4 µM | 9 µM | 2 µM | tde | 4.5 µM |
| CCn1cc(C(=O)O)c(=O)c2cc(F)c(N3CCNCC3)cc21 [NORFLOXACIN] | > 300 µM | > 300 µM | > 1000 µM | tde | > 300 µM |
| CC(=O)N/C=C1/C(=O)NC(=O)C(C#N)=C1C | – | – | 250 µM | – | – |
| CC1=CC(=O)c2ccccc2C1=O [MENADIONE] | 17.7 µM | 94 µM | 29 µM | tde | 27.5 µM |
| O=C1NC(=O)/C(=C\c2ccncc2)C2=C1CCCC2 | – | – | 95 µM | – | – |
| O=c1nc2[nH]c3ccccc3nc-2c(=O)[nH]1 [ALLOXAZINE] | – | – | 226 µM | – | – |
| Cc1c2cc3c(ccc4ccccc43)oc-2nc(=O)c1C#N | > 300 µM | > 300 µM | 11 µM | tde | > 300 µM |
| O=C1NC(=O)/C(=C\c2ccc(F)cc2)C2=C1CCCC2 | – | – | 60 µM | – | – |
| Cn1nc(-c2ccncc2)nc2c(=O)n(C)c(=O)nc1-2 | 3.1 µM | 11.7 µM | 1 µM | tde | 5.8 µM |
| CCn1cc(C(=O)O)c(=O)c2ccc(C)nc21 [NALIDIXIC ACID] | > 300 µM | > 300 µM | > 1000 µM | tde | > 300 µM |
| Cn1nc(-c2cccnc2)nc2c(=O)n(C)c(=O)nc1-2 | 2 µM | 5.2 µM | 1 µM | tde | 2.1 µM |
| O=C1NC(=O)/C(=C\c2ccc(C(=O)O)cc2)C2=C1CCCC2 | – | – | 53 µM | – | – |
| COc1cccc2c1C(=O)c1c(O)c3c(c(O)c1C2=O)C[C@@](O)(C(=O)CO)C[C@@H]3O[C@H]1C[C@H](N)[C@H](O)[C@H](C)O1 [DOXORUBICIN] | 0.53 µM | 215 µM | 179 µM | tde | 1.8 µM |
| Nc1ccc2nc3c(=O)[nH]c(=O)nc-3[nH]c2c1 | 245 µM | 264 µM | 110 µM | tde | 250 µM |
| CCCc1nc2c(=O)n(C)c(=O)nc-2n(C)n1 | 13 µM | 16.5 µM | 1 µM | tde | 9.1 µM |
| O=c1[nH]c(=O)c2nc3ccccc3nc2[nH]1 [ALLOXAZINE] | > 300 µM | > 300 µM | – | tde | > 300 µM |
| CCOc1ccc2nc3c(=O)n(C)c(=O)nc-3sc2c1 | 68 µM | 46 µM | 70 µM | tde | 79 µM |
| O=C1NC(=O)/C(=C\c2ccco2)C2=C1CCCC2 | – | – | 18 µM | – | – |
| CC1=C(C)C(=O)c2ccccc2C1=O | 21.1 µM | 40.9 µM | 110 µM | tde | 23.1 µM |
